Laboratory results from patent publication EP2181589A1, “Neurotoxic sterol glycosides” (Shaw, Christopher Ariel, priority 2008, dated 2010).
Entries after “also recorded” stand apart in the source; their conditions may differ. Marks after values point to notes of the source that are not given here.

What was measured:
[1] = Body weights of SG-fed animals; format: in vivo, CD-1 mice; details: SG-fed vs control, over the study
Procedure: Five-month old male CD-1 mice (30.1-35.7 g, 7.5 cm - 8.8 cm) were purchased from Charles River (Wilmington, MA). Adult mice were chosen to mimic the mean age of onset of ALS-PDC (Kurland, 1988; Kurland et al., 1994). Thirty mice for the SG study were randomly divided into 2 groups (14 control and 16 experimental animals). All animals were housed singly in a virus-free barrier facility in a room maintained at 22°C under a 12 hour light/dark cycle. The mice were provided ad libitum access to food and water.
(§1) The synthetic SG was mixed with finely ground Purina Chow mouse pellets (Mouse Diet™, Purina) to create the experimental pellets with a SG content of 1000 µg per pellet. Dry materials were blended with a sterile silicon spatula. For every 5 g of standard feed, 2.5 mL of doubly-distilled water (dd)H2O was added and the dough was kneaded and round up into pellets. A single sterol glucoside containing pellet was placed in the feeding tray each morning before the addition of regular mouse chow (ad libitum). All experimental pellets were entirely consumed by the mice each day. Control mice were fed standard mouse chow pellets of identical weight with no additives. SG feeding was conducted daily for 15 weeks and mice were behaviorally monitored until sacrifice at 35 weeks (time point 1) or 52 weeks (time point 2).

[2] = tested on: Motor Neurons per lumbar cord section; test: Motor neuron counts, cresyl violet (Nissl) histology; format: in vivo, CD-1 mice
Procedure: as §1
Mice were sacrificed for histological analysis at 35 weeks (35.9-48.6 g) and 52 weeks (41.2-51.4 g) of age. Age-matched control mice from each time point were included for comparison. The mice were deeply anaesthetized in a chamber with 4% isoflurane and perfused intracardially with filtered PBS (pH 7.4) until the effluent was cleared of blood (2 minutes), followed by perfusion with cold (4°C) 4% paraformaldehyde (PFA) in 0.1 M phosphate buffer (pH 7.4) for 5 minutes (30 mL). The PBS and the PFA were delivered through separate sterile platinum-cured silicon tubing (Cole-Parmer Canada Inc., Montreal, Canada) and peristaltic pumps (MasterFlex peristaltic pump, Cole-Parmer Canada Inc., Montreal, Canada). The brains and spinal cords were dissected out and fixed overnight at 4°C and equilibrated in increasing concentrations of sucrose in phosphate-buffered saline, pH 7.4 (10, 20, and 25%) over a 3-day period. Complete equilibration of the tissues was taken as the moment the tissues sank to the bottom of the scintillation tubes filled with 25% sucrose. After equilibration, the spinal cord and brain specimens were set in molds (Tissue-tek Cryomold, Sakura Finetek, USA, Torrance, CA) with an optimum cutting temperature (OCT) gel-sucrose mixture frozen by immersion in an isopentane (BDH Laboratory Supplies, UK) bath on dry ice and stored at -80°C until processing.
Cryosectioning of tissue: Frozen, coronal sections (spinal cord: 20 µm, brain: 30 µm) were cut with a Hacker-Bright cryostat (Hacker Instruments and Industries Inc., Winnsboro, SC) and mounted on charged glass slides (Superfrost Plus; Fisher Scientific, Pittsburgh, PA) so that adjacent CNS sections on each slide represented regions 100 µm and 150 µm apart for spinal cord and brain, respectively ((Tabata, Wilson et al. 2008)). The slides were stored at -80°C until histological processing. To ensure CNS sections were matched between animals, anatomical landmarks were verified using a mouse brain atlas (Paxinos and Franklin 2001).
Histology and quantification of motor neurons: Spinal cord and brain sections from each animal were stained for Nissl body substance. At room temperature (RT), sections were rinsed in a graded ethanol series (95%: 15 min; 70%: 1 min; 50%: 1 min) to rehydrate and remove lipids and fixation chemicals from the tissue. The tissue were then rinsed for 2 min in two exchanges of distilled water, stained with twice-filtered cresyl violet stain (1.25 g cresyl violet acetate, 0.75 mL glacial acetic acid to 250 mL distilled water), rinsed in distilled water (1 minute), and then dehydrated (50% ethanol: 1 minute; 1% glacial acetic acid-70% ethanol: 2 minutes; 95% ethanol: 2 minutes; 95% ethanol: 3 dips; 100% ethanol: 1 minute) and cleared in xylene. The slides were then cover-slipped in Entellen mountant (Merck, Darmstadt, Germany). The tissue mounted slides were selected with a randomized start and sampled starting from the lumbar 2 region to the 6th. […]

[3] = SG-fed vs control, time-point 1, 35 wk
[4] = SG-fed vs control, time-point 2, 52 wk
[5] = SG-group over time, 35 to 52 wk

## CCC(C=CC(C)C1CCC2C3CC=C4CC(OC5OC(CO)C(O)C(O)C5O)CCC4(C)C3CCC12C)C(C)C (stereo not drawn) [SG]
[1]
  Body weights: not significantly different; also recorded: normal weight gain
[2]; [3]
  Chromatolytic α-MN: Chromatolytic α-MN (ns)
  Healthy α-MN: Healthy α-MN (ns)
  Pyknotic α-MN: Pyknotic α-MN (ns)
  Total γ-MN: Total γ-MN (ns)
[2]; [4]
  Chromatolytic α-MN: Chromatolytic α-MN (ns)
  Pyknotic α-MN: Pyknotic α-MN (ns)
  Total γ-MN: Total γ-MN (ns)
[2]; SG-fed vs control, time-point 2, 52 wk, table cell prints no unit
  Total α-MN: Total α-MN: -47*
[2]; [5]
  Chromatolytic α-MN: (control group & SG-group independently over time) (ns)
  Pyknotic α-MN: (control group and SG-group independently over time) (ns)
  Total γ-MN: (control group and SG-group independently over time) (ns)
